Experimental data as given in US8648071B2, “Hydrazonamide compounds that modulate Hsp90 activity” (Synta Pharmaceuticals Corp., priority 2008, dated 2014).

Test system: Her2
Experiment: Degradation of Her2 in BT-474 cells, Western blot (Method 1)
Type: cell-based, human
Conditions: 0.5 μM, overnight
Protocol: Human high-Her2 breast carcinoma BT474 (HTB-20), SK-BR-3 (HTB-30) and MCF-7 breast carcinoma (HTB-22) from American Type Culture Collection, VA, USA were grown in Dulbecco's modified Eagle's medium with 4 mM L-glutamine and antibiotics (100 IU/ml penicillin and 100 μg/ml streptomycine; GibcoBRL). To obtain exponential cell growth, cells were trypsinized, counted and seeded at a cell density of 0.5×10^6 cells/ml regularly, every 3 days. All, experiments were performed on day 1 after cell passage.
BT-474 cells are treated with 0.5 μM, 2 μM, or 5 μM of 17AAG (a positive control) or 0.5 μM, 2 μM, or 5 μM of a compound of the invention overnight in DMEM medium. After treatment, each cytoplasmic sample is prepared from 1×10^6 cells by incubation of cell lysis buffer (#9803, Cell Signaling Technology) on ice for 10 minutes. The resulting supernatant used as the cytosol fractions is dissolved with sample buffer for SDS-PAGE and run on a SDS-PAGE gel, blotted onto a nitrocellulose membrane by using semi-dry transfer. Non-specific binding to nitrocellulose is blocked with 5% skim milk in TBS with 0.5% Tween at room temperature for 1 hour, then probed with anti-Her2/ErB2 mAb (rabbit IgG, #2242, Cell Signaling) and anti-Tubulin (T9026, Sigma) as housekeeping control protein. […]

Structure (SMILES): C=CCNC1=C2C[C@@H](C)C[C@H](OC)[C@H](O)[C@@H](C)/C=C(\C)[C@H](OC(N)=O)[C@@H](OC)/C=C\C=C(/C)C(=O)NC(=CC1=O)C2=O [Compound 17AAG, 17-allylamino-17-demethoxygeldanamycin]
- degradation of Her2: partial degradation of Her2
